One test concerns Plasma testosterone. The test is described as follows: Testosterone production in LHRH/ACTH-injected rats. Set-up: species or system Adult male Wistar rats. As to conditions: Rattus norvegicus, po; 10 mg/kg orally by gavage; LHRH/ACTH injected 1 h later; plasma 2 h after stimulation; % non-recovered relative to untreated controls; read-out: Testosterone in vivo (% inhibition) 10 mg/kg / 2h. How it is done:
(§1) Adult male Wistar rats weighing 250 g were starved 24 h before the start of the experiment. Between 8 and 9 a.m. 10 mg/kg of the test compounds were administered orally by gavage. One hour later, the animals were injected intramuscularly with 40 ng of Luteinizing Hormone Releasing Hormone (LHRH) (Receptal®) and 25 µg of Adrenocorticotropic Hormone (ACTH1-24) (Cortrosyn®). To avoid stress, the animals were also anesthetized with 7.5 mg of pentobarbital. Two hours after stimulation, the animals were killed by decapitation and trunk blood was collected in heparinized tubes. […] Corticosterone was measured using radio immunoassay with ^3H-labelled corticosterone and dextrane-coated charcoal to separate bound and free steroid.

In another test the test system is Corticosterone. The test is described as follows: Corticosterone production in LHRH/ACTH-injected rats. On the set-up: species or system Adult male Wistar rats. The settings on record: Rattus norvegicus, po; 10 mg/kg orally by gavage; LHRH/ACTH injected 1 h later; plasma 2 h after stimulation; % non-recovered relative to untreated controls; read-out: Corticosterone in vivo (% inhibition) 10 mg/kg / 2h. The procedure: as §1

In a further test the test system is Plasma estradiol. The test is described as follows: Estradiol production in PMSG-injected rats. On the set-up: species or system Female Wistar rats. As to conditions: Rattus norvegicus; 1 mg/kg by gavage three days after 200 I.U. PMSG s.c.; plasma 2 h after administration; % non-recovered relative to untreated controls; read-out: Estradiol in vivo (% inhibition) 1 mg/kg / 2h. The procedure:
Female Wistar rats weighing 150 g were injected with 200 I.U. Pregnant Mare's Serum Gonadotropin (PMSG) (Folligon®) subcutaneously. Three days later 1 mg/kg of the test compound, dissolved in 20% polyethyleneglycol in water, was administered by gavage. Control animals received 20% polyethyleneglycol only. Two hours after drug or placebo administration the animals were killed by decapitation and trunk blood was collected in heparinized tubes. Plasma estradiol was measured using a direct fluorescence immunoassay.

Molecules are shown by their SMILES.

This is an account of results in patent EP0625155B1, “PYRROLOIMIDAZOLYL AND IMIDAZOPYRIDINYL SUBSTITUTED 1H-BENZIMIDAZOLE DERIVATIVES AS AROMATASE INHIBITORS” (JANSSEN PHARMACEUTICA N.V., priority 1992, dated 1993).

For `CCCCn1cnc2ccc(C3CCc4cncn43)cc21` (racemic) [compound 22], the inhibition at 10 mg/kg with Plasma testosterone was 92.5%; in the test on Corticosterone, 35%. Moreover, in the test on Plasma estradiol, the inhibition at 1 mg/kg worked out at 91%.
Regarding `Cn1cnc2ccc(C3CCc4cncn43)cc21` (racemic) [compound 23], the inhibition at 10 mg/kg was found to be 81% in the test with Plasma testosterone and 31% in the test on Corticosterone. The inhibition at 1 mg/kg in the test on Plasma estradiol came to 78%.
Taken in the same sequence, the figures for `CCCCCn1cnc2ccc(C3CCc4cncn43)cc21` (racemic) [compound 31] were 91%, 28% and 69%.
Taken in the same sequence, the figures for `CCCCCCn1cnc2ccc(C3CCc4cncn43)cc21` (racemic) [compound 32] were 67%, 37% and 65%.
The matching figures for `CCCn1cnc2ccc(C3CCc4cncn43)cc21` (racemic) [compound 33]: 98%, 55% and 82%.
As to `CCCCn1c(CC)nc2ccc(C3CCc4cncn43)cc21` (racemic) [compound 34], the inhibition at 10 mg/kg with Plasma testosterone came to 12%; in the test on Corticosterone, 21%. The inhibition at 1 mg/kg in the test on Plasma estradiol stood at 80%.
Taken in the same sequence, the figures for `c1cc2ncn(C3CCCCC3)c2cc1C1CCc2cncn21` (racemic) [compound 35] were 92%, 22% and 77%.
The matching figures for `c1ccc(-n2cnc3ccc(C4CCc5cncn54)cc32)cc1` (racemic) [compound 37]: 96%, 22% and 31%.
On to `c1ccc(Cn2cnc3ccc(C4CCc5cncn54)cc32)cc1` (racemic) [compound 38], for which the inhibition at 10 mg/kg in the test with Plasma testosterone stood at 80%; in the test on Corticosterone it was 7%. Besides, the inhibition at 1 mg/kg with Plasma estradiol was determined as 42%.
Turning to `CCn1cnc2ccc(C3CCc4cncn43)cc21` (racemic) [compound 39], the values for the inhibition at 10 mg/kg with Plasma testosterone and in the test on Corticosterone were 93% and 39%, respectively. Moreover, the inhibition at 1 mg/kg with Plasma estradiol was found to be 90%.
Taken in the same sequence, the figures for `c1cc2ncn(C3CC3)c2cc1C1CCc2cncn21` (racemic) [compound 41, (±)-1-cyclopropyl-6-(6,7-dihydro-5H-pyrrolo[1,2-c]imidazol-5-yl)-1H-benzimidazole dinitrate] were 91%, 39% and 89%.
The matching figures for `CC(C)n1cnc2ccc(C3CCc4cncn43)cc21` (racemic) [compound 42]: 98%, 33% and 93%.
Taken in the same sequence, the figures for `c1ccc(-c2nc3cc(C4CCc5cncn54)ccc3[nH]2)cc1` (racemic) [compound 43] were 64%, 20% and 54%.
Take `CCCCn1c(NC(=O)OC)nc2ccc(C3CCc4cncn43)cc21` (racemic) [compound 44]: the inhibition at 10 mg/kg was found to be 66% with Plasma testosterone and 10% in the test on Corticosterone. For the same compound, the inhibition at 1 mg/kg in the test with Plasma estradiol was 66%.
`c1nc2cc(C3CCc4cncn43)ccc2[nH]1` (racemic) [compound 46]: the inhibition at 10 mg/kg in the test with Plasma testosterone came out at 78%; in the test on Corticosterone, 23%. In addition, the inhibition at 1 mg/kg in the test on Plasma estradiol was found to be 77%.
Taken in the same sequence, the figures for `Cc1nc2cc(C3CCc4cncn43)ccc2[nH]1` (racemic) [compound 47, (±)-5-(6,7-dihydro-5H-pyrrolo-[1,2-c]imidazol-5-yl)-2-methyl-1H-benzimidazole] were 85%, 4% and 72%.
The matching figures for `CCCCn1c(O)nc2ccc(C3CCc4cncn43)cc21` (racemic) [compound 48, (±)-1-butyl-6-(6,7-dihydro-5H-pyrrolo[1,2-c]imidazol-5-yl)-1H-benzimidazol-2-ol]: 93%, 4% and 77%.
Taken in the same sequence, the figures for `C=CCn1cnc2ccc(C3CCc4cncn43)cc21` (racemic) [compound 49] were 90%, 13% and 81%.
